# Where two headings read alike, the source gives them in different places. Square brackets hold non-standard residues; d marks the D form. Peptide text beside a SMILES is read from it. d(pS) = N[C@H](COP(=O)(O)O)C(=O)O; pS = N[C@@H](COP(=O)(O)O)C(=O)O; dNle = CCCC[C@@H](N)C(=O)O
# System: THP-1 cell line
# Test: Cell proliferation assay (Promega Cell Titer-Glo) using cell line THP-1
# Format: cell-based
# Method: To determine the in vitro IC50 of two peptides, and a positive control, cisplatin, against the THP-1 cell line, cell growth is determined using Promega's Cell Titer-Glo® assay. THP-1 tumor cells are placed in a 96-well microculture plate (Costar white, flat bottom #3917) at 20,000 cells per well, in a total volume of 90 μL/well. After 24 hours of incubation in a humidified incubator at 37 C with 5% CO2 and 95% air, 10 μL of 10×, serially diluted test agents in growth medium are added to each well. […] 100 μL of Cell Titer-Glo® reagent are added to each well. The plate is shaken for 2 minutes and then left to equilibrate for 10 minutes before determining luminescence on a Tecan GENios microplate reader. Percent inhibition of cell growth is calculated relative to untreated control wells. All tests are performed in duplicate at each concentration level. The IC50 value for the test agents is estimated using Prism 3.03 by curve-fitting the data using the following four parameter-logistic equation: where Top is the maximal % of control absorbance, Bottom is the minimal % of control absorbance at the highest agent concentration, Y is the % of control absorbance, X is the agent concentration, IC50 is the concentration of agent that inhibits cell growth by 50% compared to the control cells, and n is the slope of the curve.
IC50 (24 h) [µM],SMILES,"IC50 (THP-1 tumor cells, 96 total hours of culture, Cell Titer-Glo luminescence, Table 1, read-out: IC50 values) [µM]","IC50 (THP-1 tumor cells, 96 total hours of culture, Cell Titer-Glo luminescence, Table 2, read-out: IC50 values) [µM]"
,"N.N.[Cl][Pt][Cl] [Cisplatin, cisplatin, reference compound]",1.6,1.6
17.5,"CC[C@@H](C)[C@@H](NC(=O)[C@@H](CC(C)C)NC(=O)[C@@H](CC(N)=O)NC(=O)[C@@H](CC(=O)O)NC(=O)[C@@H](CC(C)C)NC(=O)[C@@H](CCSC)NC(=O)[C@@H](CO)NC(=O)[C@H](NC(=O)[C@@H](CCC(=O)O)NC(=O)[C@@H](CC(N)=O)NC(=O)[C@@H](CCC(=O)O)NC(=O)[C@@H](CC(C)C)NC(=O)CNC(=O)[C@@H](CCCNC(=N)N)NC(=O)[C@@H](CCCNC(=N)N)NC(=O)[C@@H](CCCNC(=N)N)NC(=O)[C@@H](CCCNC(=N)N)NC(=O)[C@@H](CCCNC(=N)N)NC(=O)[C@@H](CCCNC(=N)N)NC(=O)[C@@H](CCCNC(=N)N)NC(=O)[C@@H](CCCNC(=N)N)NC(=O)[C@H](N)CCCNC(=N)N)[C@H](C)O)C(=O)N[C@H](CCCCN)C(=O)N[C@H](CCCNC(=N)N)C(=O)N[C@H](Cc1ccc(O)cc1)C(=O)N[C@H](COP(=O)(O)O)C(=O)NCC(N)=O [SEQ ID NO: 13, dR dR dR dR dR dR dR dR dR G dL dE dN dE dT dS dM dL dD dN dL dI dK dR dY dpS G amide] (H-[dR][dR][dR][dR][dR][dR][dR][dR][dR]G[dL][dE][dN][dE][dT][dS][dM][dL][dD][dN][dL][dI][dK][dR][dY][d(pS)]G-NH2; N-terminus assumed)",,
13.9,"CC[C@@H](C)[C@@H](NC(=O)[C@@H](CC(C)C)NC(=O)[C@@H](CC(N)=O)NC(=O)[C@@H](CC(=O)O)NC(=O)[C@@H](CC(C)C)NC(=O)[C@@H](CCSC)NC(=O)[C@@H](CO)NC(=O)[C@H](NC(=O)[C@@H](CCC(=O)O)NC(=O)[C@@H](CC(N)=O)NC(=O)[C@@H](CCC(=O)O)NC(=O)[C@@H](CC(C)C)NC(=O)CNC(=O)[C@@H](CCCNC(=N)N)NC(=O)[C@@H](CCCNC(=N)N)NC(=O)[C@@H](CCCNC(=N)N)NC(=O)[C@@H](CCCNC(=N)N)NC(=O)[C@@H](CCCNC(=N)N)NC(=O)[C@@H](CCCNC(=N)N)NC(=O)[C@@H](CCCNC(=N)N)NC(=O)[C@@H](CCCNC(=N)N)NC(=O)[C@H](N)CCCNC(=N)N)[C@H](C)O)C(=O)N[C@H](CCCCN)C(=O)N[C@H](CCCNC(=N)N)C(=O)N[C@H](Cc1ccc(O)cc1)C(=O)N[C@@H](COP(=O)(O)O)C(=O)NCC(N)=O [SEQ ID NO: 14, dR dR dR dR dR dR dR dR dR G dL dE dN dE dT dS dM dL dD dN dL dI dK dR dY pS G amide] (H-[dR][dR][dR][dR][dR][dR][dR][dR][dR]G[dL][dE][dN][dE][dT][dS][dM][dL][dD][dN][dL][dI][dK][dR][dY][pS]G-NH2; N-terminus assumed)",,
14.1,"CCCC[C@@H](NC(=O)[C@@H](CCSC)NC(=O)[C@@H](CO)NC(=O)[C@H](NC(=O)[C@@H](CCC(=O)O)NC(=O)[C@@H](CC(N)=O)NC(=O)[C@@H](CCC(=O)O)NC(=O)[C@@H](CC(C)C)NC(=O)CNC(=O)[C@@H](CCCNC(=N)N)NC(=O)[C@@H](CCCNC(=N)N)NC(=O)[C@@H](CCCNC(=N)N)NC(=O)[C@@H](CCCNC(=N)N)NC(=O)[C@@H](CCCNC(=N)N)NC(=O)[C@@H](CCCNC(=N)N)NC(=O)[C@@H](CCCNC(=N)N)NC(=O)[C@@H](CCCNC(=N)N)NC(=O)[C@H](N)CCCNC(=N)N)[C@H](C)O)C(=O)N[C@H](CC(=O)O)C(=O)N[C@H](CC(N)=O)C(=O)N[C@H](CC(C)C)C(=O)N[C@@H](C(=O)N[C@H](CCCCN)C(=O)N[C@H](CCCNC(=N)N)C(=O)N[C@H](Cc1ccc(O)cc1)C(=O)N[C@@H](COP(=O)(O)O)C(=O)NCC(N)=O)[C@H](C)CC [SEQ ID NO: 15, dR dR dR dR dR dR dR dR dR G dL dE dN dE dT dS dM dNIe dD dN dL dI dK dR dY pS G amide] (H-[dR][dR][dR][dR][dR][dR][dR][dR][dR]G[dL][dE][dN][dE][dT][dS][dM][dNle][dD][dN][dL][dI][dK][dR][dY][pS]G-NH2; N-terminus assumed)",,
21.6,"CC[C@@H](C)[C@@H](NC(=O)[C@@H](CCCCN)NC(=O)[C@@H](CCC(=O)O)NC(=O)[C@@H](CC(C)C)NC(=O)[C@@H](CCC(=O)O)NC(=O)[C@@H](CC(C)C)NC(=O)[C@@H](CC(C)C)NC(=O)[C@@H](CC(C)C)NC(=O)[C@@H](CCSC)NC(=O)[C@@H](CO)NC(=O)[C@H](NC(=O)[C@@H](CCC(=O)O)NC(=O)[C@@H](CC(N)=O)NC(=O)[C@@H](CCC(=O)O)NC(=O)[C@@H](CC(C)C)NC(=O)CNC(=O)[C@@H](Cc1ccc(O)cc1)NC(=O)CNC(=O)[C@@H](CCCNC(=N)N)NC(=O)[C@@H](CCCCN)NC(=O)[C@@H](CCCCN)NC(=O)[C@@H](CCCNC(=N)N)NC(=O)[C@@H](CCCNC(=N)N)NC(=O)[C@@H](CCC(N)=O)NC(=O)[C@@H](CCCNC(=N)N)NC(=O)[C@@H](CCCNC(=N)N)NC(=O)[C@H](N)CCCNC(=N)N)[C@H](C)O)C(=O)N[C@H](CCCNC(=N)N)C(N)=O [SEQ ID NO: 16, dR dR dR dQ dR dR dK dK dR G dY G dL dE dN dE dT dS dM dL dL dL dE dL dE dK dI dR amide] (H-[dR][dR][dR][dQ][dR][dR][dK][dK][dR]G[dY]G[dL][dE][dN][dE][dT][dS][dM][dL][dL][dL][dE][dL][dE][dK][dI][dR]-NH2; N-terminus assumed)",,

# Source: patent US20120302503A1, “PEPTIDES FOR PREVENTING OR TREATING A DISEASE OR DISORDER ASSOCIATED WITH CBP OR p300 MISREGULATION, AND METHODS FOR USE AND IDENTIFICATION THEREOF” (AML Therapeutics, LLC, priority 2011, published 2012)
